According to patent US6521593B1, “Methods for inhibiting brain tumor growth” (Childrens Hospital Los Angeles, priority 1999, dated 2003):

Assays:
[1] = tested on: human brain endothelial cells (HBEC); experiment: Vitronectin adhesion, HBEC; format: cell-based; conditions: test substance 20 μg/ml
Protocol: (§1) Adhesion: Assay conditions were as previously described (15). Non-tissue culture treated wells incubated overnight at 4° C. with vitronectin (1-10 μg/ml PBS), washed and blocked for 30 min. with heat denatured 1% BSA in PBS, followed by washing with PBS. Control and test cells, pre-incubated at 37° C. with the test substance (20 μg/ml) in adhesion buffer for 30 min. were plated into wells (5×10^4 cells/well) and incubated for 1 hr at 37° C. After gentle washing of the wells with adhesion buffer, adhering cells were fixed and stained with crystal violet, the dye solubilized in methanol and the OD determined at […].
(§2) To determine if αvβ3 and αvβ5 regulate DAOY, U87MG and HBEC adhesion to vitronecin, the cells were plated in vitronectin-coated wells and allowed to adhere in the presence or absence of either blocking antibodies to αvβ3 (LM-609) and αvβ5 (P1-F6) or the cRGD peptide.

[2] = tested on: DAOY medulloblastoma cells; experiment: Tumor cell adhesion to ECM proteins (FIG. 7), DAOY; format: cell-based, human; conditions: DAOY on vitronectin and tenascin, 20 μg/ml, 8-hour incubation
Protocol: Non tissue culture dishes were incubated 1 hour at 37° C. with vitronectin, tenascin, fibronectin or collagen I (10 μg/ml), then washed with PBS. After the wash, 5×10^5 cells /well were plated and incubated for 16 hours at 37° C. The cultures were then washed and an adhesion buffer containing 20 μg/ml of pentapeptide or control peptide were added and incubated for an additional 2-24 hours. The cultures were then washed twice with adhesion buffer and stained with Crystal violet and the OD 600 determined. The more adherent cells are present, the higher the OD. Data represent adherent cells after 8-hour incubation. U87=glioblastoma and DAOY=medulloblastoma.

[3] = tested on: U87MG cells; experiment: Orthotopic brain tumor model, U87MG cells injected intracerebrally in nu/nu mice
Protocol: Tumor cells (10^6/10 μl PBS) were injected intracerebrally at the coordinates mentioned. […] The animals were then sacrificed by CO2 anesthesia, the brains removed and either snap frozen in liquid nitrogen or fixed in buffered formalin, embedded in paraffin and the cut sections stained with Hematoxylin-Eosin.
DAOY and U87MG cells (10^6 cells/mouse) were stereotactically injected into the right frontal cortex of nu/nu mice in order to establish a system that recapitulates the brain microenvironment.
Additional animals were tested for survival. Survival was measured as the time point in which mice required sacrifice, due to a moribund state. […] N for DAOY and U87MG control is 16 mice each and 32 mice for treated DAOY and 24 for treated U87MG.
Tumors were removed after 2 weeks of treatment, fixed in buffered formalin, embedded in paraffin and 5 μm sections obtained.

[4] = tested on: DAOY cells; experiment: Vitronectin adhesion, DAOY; format: cell-based, human; conditions: test substance 20 μg/ml
Protocol: as §1, §2

[5] = tested on: DAOY human brain tumor cells; experiment: CAM assay: angiogenesis and growth of DAOY tumors on chick chorioallantoic membrane; format: in vivo; conditions: 100 μg into a CAM vein, 6 days
Protocol: CAM assay: Egg supplier and preparation have been described earlier (23). Tumor cells were plated in 50 μl PBS at 4×10^6 cells/egg for DAOY and 3.5×10^6 cells/egg for U87MG. Cells were grown to tumors for 7 days, then harvested under sterile conditions, trimmed to similar sizes and […] onto the CAM of 10-day-old embryos. […] Tumors were photographed in situ after 7 days of growth, then harvested, weighed and fixed in 4% buffered formalin and embedded in paraffin. After serial sectioning, slides were stained with hematoxilin and eosin.
To assess the effect of αv antagonism on brain tumor associated angiogenesis, DAOY and U87MG human brain tumor cells were grown on chick chorioallantoic membranes (CAMs). The tumors were allowed to grow for 7 days before they were removed and reimplanted onto fresh CAMs. 24 hours after transfer, 100 μg of either the active cRGD peptide or control peptide (cRAD) was injected into a CAM vein. Tumors were grown for an additional 6 days and then weighed and analyzed for vascularization. […] In contrast to control tumors, which increased 80% in weight, αv-antagonist treated tumors decreased 30% in weight (FIG. 1b).
FIGS. 1a and 1b show the inhibition of angiogenesis (a) and tumor growth on the CAM (b) by an αv-antagonist. Brain tumors grown on CAMs were harvested and cut to similar sizes and placed on fresh CAMs of 10-day-old chicken eggs. The following day, 100 μg of active αv-inhibitor or control peptide were injected into the chicken veins and grown for another 6 days. […] Tumors placed on the CAM were weighed at the beginning and end of the experiment (b). The weight of the tumors treated with the control peptide increased by 80% for both tumor types (left, n=8), whereas it decreased by about 30% when the active peptide was administered (right, n=8).

[6] = tested on: DAOY cells; experiment: Apoptosis on vitronectin (Annexin V-FITC FACS), DAOY; format: cell-based, human; conditions: 20 μg/ml, 4 hrs
Protocol: Apoptosis: Adhesion conditions were as above, except that 12 well plates covered with vitronectin and 5×10^5 cells/well were plated in adhesion buffer. […] Attached cells were trypsinized and combined with the detached cells in the supernatant and then examined for the presence of apoptotic cells using the Apo Alert Annexin V-FITC apoptosis kit (Clontech).
FIGS. 6a-6d show the integrin profile (a), effect of αv-antagonist on adhesion to (b), migration on (c) and cell viability on vitronectin (d) for brain tumor and brain capillary endothelial cells. Both DAOY and U87MG tumor cells and brain capillary cells express the integrins αvβ3 and αvβ5 (a). […] Cell viability was tested by letting the cells attach to vitronectin for 1 hour, and then exposing them for 4 hours to the control peptide or αv-antagonist (20 μg/ml) (d). Adherent and floating cells were combined and examined by FACS for apoptosis, using FITC labeled anti-annexin V and propidium iodide.
We have previously shown that pre-incubation of brain tumor or capillary cells with the cRGD peptide, or the combination of anti-αvβ3 and anti-αvβ5 antibodies, prevents cell adhesion to vitronectin. […] Attached cells were combined after trypsinization with floating cells and the number of apoptotic cells was determined by FACS, using anti-annexin V-FITC antibody and propidium iodide (Clontech Apo alert Annexin V-FITC detection apoptosis kit).

[7] = tested on: U87MG cells; experiment: Vitronectin migration (Boyden chamber), U87MG; format: cell-based, human; conditions: test substance 20 μg/ml, 4 hrs
Protocol: Migration: Transwell polycarbonate filters (8 μm pore size) were incubated for 30 min. at 37° C. with vitronectin in PBS (1 μg/ml on the upper side and 10 μg on the bottom side), blocked for 30 min. with 1% heat denatured BSA and washed with PBS. Test cells (5×10^5/well) were added in adhesion buffer containing the test substances indicated (20 μg/ml) and incubated for 4 hrs at 37° C. with the lower chamber containing adhesion buffer. Cells in the upper chamber were removed with a cotton swab and cells on the bottom part of the filter were fixed and stained with crystal violet and the number of migrated cells determined by counting.
To address whether αvβ3 and αvβ5 modulate migration on vitronectin, independent of adhestion, we tested the same cells on vitronectin-coated membranes in Boyden chambers while in the presence of blocking antibodies or cRGD. […] Since LM-609, in the absence of P1-F6, was incapable of blocking adhesion, this anti-migratory effect must be mediated through a distinct pathway which is independent of forces responsible for adhesion.

For CC(C)[C@H]1C(=O)N[C@@H](CCCN=C(N)N)C(=O)NCC(=O)N[C@@H](CC(=O)O)C(=O)N[C@H](Cc2ccccc2)C(=O)N1C [EMD 121974, cyclo(Arg-Gly-Asp-D-Phe-[N-Me]-Val)], which adhesion to vitronectin [1] is on record?
Its adhesion to vitronectin is “Significant inhibition”.

What about the “adhesion to ECM (adherent cells, OD 600)” value [2] of the same molecule?
The value was “detached from vitronectin and tenascin”.

And the “Mouse weight (gr)” value ([3]; U87MG, 100 μg/mouse daily i.p.)?
Its value is 20 ± 0.71 gr.

What about the “mean time to the onset of neurologic symptoms” value ([3]; U87MG, 100 μg/mouse daily i.p.) of the same molecule?
The value was “no evidence of neurological symptoms at any time”.

What about the mouse weight ([3]; U87MG, 100 μg/mouse daily i.p., baseline 21 g) of the same molecule?
The mouse weight was 21 g.

What about the “survival (time point at which mice required sacrifice, moribund state)” value ([3]; U87MG, i.p. 100 μg/mouse/day from day 3) of the same molecule?
Its value is no less than 15 weeks.

What about the “Tumor size (mm) Brain” value ([3]; U87MG, nu/nu mice, 100 μg/mouse daily i.p. from day 3, 4 weeks total tumor growth, listed as αv-antagonist) of the same molecule?
The value was “no tumor or only scant residual tumor cells”.

What about the “size of residual tumor foci” value ([3]; U87MG, treated group) of the same molecule?
Its value is “smaller than 1 mm^3”.

And the “CD31 positive vessels in tumor sections (immunohistochemistry)” value ([3]; U87 brain tumors, 100 μg/mouse/day from day 7, 2 weeks of treatment, p<0.005)?
Its value is “very few such vessels”.

And the “apoptotic (dead) cells in tumor sections” value ([3]; U87 brain tumors, 100 μg/mouse/day from day 7, 2 weeks of treatment, p<0.02)?
The value was “significantly more dead cells”.

What about the adhesion to vitronectin [4] of the same molecule?
The adhesion to vitronectin was “Significant inhibition”.

What about the “tumor-associated angiogenesis (stereomicroscope)” value [5] of the same molecule?
Its value is “significant suppression of angiogenesis”.

What about the “decrease of tumor weight” value ([5]; n=8, listed as active peptide) of the same molecule?
Its value is “about 30%”.

What about the “decrease of tumor weight” value ([5]; n=8, listed as αv-antagonist) of the same molecule?
Its value is 30%.

What about the “apoptosis after attachment to vitronectin” value [6] of the same molecule?
Its value is “significant apoptosis”.

What about the migration on vitronectin [7] of the same molecule?
Its migration on vitronectin is “significantly inhibited”.
